Data set [1] concerns HIV-1IIIB infected MT-4 cells. Briefly: Antiviral activity in HIV-1IIIB infected MT-4 cells (MTT method). The class given is cell-based. Particulars: Human immunodeficiency virus 1, MT4, 120 h, MOI 0.01, MT-4 cells, 5 days, read-out: EC50 (concentration required for inhibition of cell disorder due to HIV infection by 50%). As for the experimental part: Immediately after infection, HIV-1IIIB infected MT-4 cells (3.0×10^4/well, MOI (Multiplicity of infection): 0.01) were added to a 96-well microtiter plate together with the test compounds having different concentrations. The cells were cultured in a carbon dioxide incubator at 37° C. for 5 days, and the number of living cells was measured in accordance with the MTT (tetrazolium) method ([…] et al., J. of Virol. Method, 20, 309-321 (1988)). The antiviral activity is represented the concentration required for inhibition of cell disorder due to HIV infection by 50% (EC50: 50% Effective Concentration), and expressed using μM, and the results are shown in Table 2.

A further data set deals with T1, receptors CXCR4 (Homo sapiens, UniProt P61073).
T1 construct: endogenous in cells; host or cells: MT4 cells
Put plainly: Inhibition of 125I-SDF-1 binding to CXCR4 on MT4 cells. As to conditions: 125I-SDF-1 ligand, 2 hours under ice-cooling, read-out: Inhibition rate (binding-inhibition %). As for the experimental part:
MT4 cells (5×10^6/0.2 ml/well) were cultured on a 24-well microtiter plate. After the cells were incubated for 24 hours at 37° C. in a carbon dioxide gas incubator, a culture medium was replaced with a buffer solution (0.1% BSA-containing RPMI-1640). Together with a ligand (^125I-SDF-1″, specific activity: 2,200 Ci/mmol; manufactured by Daiichi Chemicals Co., Ltd. (Tokyo)), test materials of various concentrations were subjected to a binding reaction for 2 hours under ice-cooling.

For a further data set, the system named is ICR mice (male). As to conditions: mouse, in vivo, 4 days. The procedure:
The acute toxicity of the aforementioned compound was examined. Specifically, 7-week-old ICR mice (male) were divided into several groups (4 or 5 mice in each group), and the mice were bred for 1 week for habituation. Subsequently, each of the compounds of Examples was dissolved in distilled water or physiological saline, and the solution was administered to the mice via tail vein (dose: 15 mg/kg) twice a day for 4 days. On the fifth day, dead mice were counted.

T1 sequence (P61073 whole entry): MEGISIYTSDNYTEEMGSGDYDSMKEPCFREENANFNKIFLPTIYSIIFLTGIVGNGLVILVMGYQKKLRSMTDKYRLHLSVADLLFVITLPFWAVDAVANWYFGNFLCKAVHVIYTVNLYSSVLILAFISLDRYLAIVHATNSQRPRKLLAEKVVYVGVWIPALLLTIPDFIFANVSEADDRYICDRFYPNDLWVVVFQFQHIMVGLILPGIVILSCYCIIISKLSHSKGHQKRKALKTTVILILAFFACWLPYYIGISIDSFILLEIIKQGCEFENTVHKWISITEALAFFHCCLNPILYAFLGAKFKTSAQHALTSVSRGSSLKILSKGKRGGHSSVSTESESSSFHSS

Turning to `Cc1ccccc1CNCCC[C@H](NC(=O)c1ccc(CNCc2ncc[nH]2)cc1)C(=O)N[C@@H](C)c1cccc2ccccc12` [Compound No. 1, N-[(S)-1-(1-naphthyl)ethyl]-5-(2-methylbenzyl)amino-2-(S)-[4-[N-(imidazol-2-ylmethyl)aminomethyl]benzoyl]aminopentanoylamide], the EC50 in data set [1] is 58 nM. For the same compound, the inhibition at 0.1 µM at receptors CXCR4 was 100%.
The corresponding values for `COc1ccccc1CNCCC[C@H](NC(=O)c1ccc(CNCc2ncc[nH]2)cc1)C(=O)N[C@@H](C)c1cccc2ccccc12` [Compound No. 2, N-[(S)-1-(1-naphthyl)ethyl]-5-(2-methoxybenzyl)amino-2-(S)-[4-[N-(imidazol-2-ylmethyl)aminomethyl]benzoyl]aminopentanoylamide] are 99.6 nM and 97.6%.
With `Cc1cccnc1CNCCC[C@H](NC(=O)c1ccc(CNCc2ncc[nH]2)cc1)C(=O)N[C@@H](C)c1cccc2ccccc12` [Compound No. 9, N-[(S)-1-(1-naphthyl)ethyl]-5-(3-methylpyridin-2-yl)methylamino-2-(S)-[4-[N-(imidazol-2-ylmethyl)aminomethyl]benzoyl]aminopentanoylamide], in the data set on ICR mice (male), the Dead mice/test mice was 0/5. Also, the EC50 in data set [1] is 55.3 nM.
Regarding `CCc1ccccc1CNCCC[C@H](NC(=O)c1ccc(CNCc2ncc[nH]2)cc1)C(=O)N[C@@H](C)c1cccc2ccccc12` [Compound No. 22, N-[(S)-1-(1-naphthyl)ethyl]-5-(2-ethylbenzyl)amino-2-(S)-[4-[N-(imidazol-2-ylmethyl)aminomethyl]benzoyl]aminopentanoylamide], the EC50 in data set [1] stood at 30 nM.
As for `C[C@H](NC(=O)[C@H](CCCNC1CCCCC1)NC(=O)c1ccc(CNCc2ncc[nH]2)cc1)c1cccc2ccccc12` [Compound No. 27, N-[(S)-1-(1-naphthyl)ethyl]-5-cyclohexylamino-2-(S)-[4-[N-(imidazol-2-ylmethyl)aminomethyl]benzoyl]aminopentanoylamide], the inhibition at 0.1 µM on receptors CXCR4 worked out at 97%.
`C[C@H](NC(=O)[C@H](CCCNC1CCCc2ccccc21)NC(=O)c1ccc(CNCc2ncc[nH]2)cc1)c1cccc2ccccc12` (stereo partly drawn) [Compound No. 28, N-[(S)-1-(1-naphthyl)ethyl]-5-(1,2,3,4-tetrahydronaphthalen-1-yl)amino-2-(S)-[4-[N-(imidazol-2-ylmethyl)aminomethyl]benzoyl]aminopentanoylamide]: at receptors CXCR4, the inhibition at 0.1 µM is 100%.
Regarding `C[C@H](NC(=O)[C@H](CCCNC1CCc2ccccc21)NC(=O)c1ccc(CNCc2ncc[nH]2)cc1)c1cccc2ccccc12` (stereo partly drawn) [Compound No. 29, N-[(S)-1-(1-naphthyl)ethyl]-5-(indan-1-yl)amino-2-(S)-[4-[N-(imidazol-2-ylmethyl)aminomethyl]benzoyl]aminopentanoylamide], the Dead mice/test mice with ICR mice (male) was 0/5. The inhibition at 0.1 µM on receptors CXCR4 came to 100%.
Take `CC(C)CN(CCC[C@H](NC(=O)c1ccc(CNCc2ncc[nH]2)cc1)C(=O)N[C@@H](C)c1cccc2ccccc12)CC(C)C` [Compound No. 33, N-[(S)-1-(1-naphthyl)ethyl]-5-diisobutylamino-2-(S)-[4-[N-(imidazol-2-ylmethyl)aminomethyl]benzoyl]aminopentanoylamide]: the Dead mice/test mice with ICR mice (male) is 0/5. Also, the EC50 in data set [1] turned out to be 6.7 nM. For the same compound, on receptors CXCR4, the inhibition at 0.1 µM is 100%.
On the same counts, the results for `CCCN(CCC)CCC[C@H](NC(=O)c1ccc(CNCc2ncc[nH]2)cc1)C(=O)N[C@@H](C)c1cccc2ccccc12` [Compound No. 34, N-[(S)-1-(1-naphthyl)ethyl]-5-di-n-propylamino-2-(S)-[4-[N-(imidazol-2-ylmethyl)aminomethyl]benzoyl]aminopentanoylamide] are 0/5, 15 nM and 98%.
Turning to `CCCN(CCC[C@H](NC(=O)c1ccc(CNCc2ncc[nH]2)cc1)C(=O)N[C@@H](C)c1cccc2ccccc12)CC(C)C` [Compound No. 39, N-[(S)-1-(1-naphthyl)ethyl]-5-(N-n-propyl-isobutylamino)-2-(S)-[4-[N-(imidazol-2-ylmethyl)aminomethyl]benzoyl]aminopentanoylamide], the Dead mice/test mice in the data set with ICR mice (male) was 0/5. For the same compound, the EC50 in data set [1] was 14.5 nM.
The corresponding values for `C[C@H](NC(=O)[C@H](CCCN(C)C1CCCCC1)NC(=O)c1ccc(CNCc2ncc[nH]2)cc1)c1cccc2ccccc12` [Compound No. 42, N-[(S)-1-(1-naphthyl)ethyl]-5-(N-methyl-cyclohexylamino)-2-(S)-[4-[N-(imidazol-2-ylmethyl)aminomethyl]benzoyl]aminopentanoylamide] are 0/5 and 14.5 nM.
As to `C[C@H](NC(=O)[C@H](CCCN1CCCCCC1)NC(=O)c1ccc(CNCc2ncc[nH]2)cc1)c1cccc2ccccc12` [Compound No. 55, N-[(S)-1-(1-naphthyl)ethyl]-5-(hexamethyleneimin-1-yl)-2-(S)-[4-[N-(imidazol-2-ylmethyl)aminomethyl]benzoyl]aminopentanoylamide], the Dead mice/test mice in the data set on ICR mice (male) is recorded as 0/5. Further, the EC50 in data set [1] turned out to be 29 nM. The inhibition at 0.1 µM on receptors CXCR4 stood at 89.3%.
On the same counts, the results for `CC(C)CN(CCO)CCC[C@H](NC(=O)c1ccc(CNCc2ncc[nH]2)cc1)C(=O)N[C@@H](C)c1cccc2ccccc12` [Compound No. 66, N-[(S)-1-(1-naphthyl)ethyl]-5-(N-isobutyl-(2-hydroxyethyl)amino)-2-(S)-[4-[N-(imidazol-2-ylmethyl)aminomethyl]benzoyl]aminopentanoylamide] are 0/5, 20 nM and 90.6%.
On the same counts, the results for `C[C@H](NC(=O)[C@H](CCCSC(=N)N)NC(=O)c1ccc(CNCc2ccccn2)cc1)c1cccc2ccccc12` [Compound No. 73, N-[(S)-1-(1-naphthyl)ethyl]-5-sulfinamidino-2-(S)-[4-[N-(pyridin-2-ylmethyl)aminomethyl]benzoyl]aminopentanoylamide] are 0/5, 69.1 nM and 93.5%.
For `C/N=C(\N)SCCC[C@H](NC(=O)c1ccc(CNCc2ccccn2)cc1)C(=O)N[C@@H](C)c1cccc2ccccc12` [Compound No. 74, N-[(S)-1-(1-naphthyl)ethyl]-5-(N-methylsulfinamidino)-2-(S)-[4-[N-(pyridin-2-ylmethyl)aminomethyl]benzoyl]aminopentanoylamide], in the data set with ICR mice (male), the Dead mice/test mice was 0/5. In addition, in data set [1], the EC50 is 46.1 nM.
